Consider ten molecules from patent US12391676B2 (H. LEE MOFFITT CANCER CENTER AND RESEARCH INSTITUTE, INC., priority 2018, dated 2025).

Entries after “also recorded” stand apart in the source; their conditions may differ. Like-named read-outs stand apart in the source and are kept apart here.

One data set deals with BRD4-1 (Homo sapiens (Human), UniProt O60885). Kind of data set: Estimated BRD4-1 IC50. Conditions: Table 1. The format is binding.
Data set [1] deals with T1, BRD4 (Homo sapiens (Human), UniProt O60885). The experiment in a line: BRD4 DSF thermal shift (ΔTm). Format: binding. The note with it: for DSF ΔTm: Table 1; for BRD4 DSF (ΔTm): Table 2.
A further data set deals with JAK2 (Homo sapiens (Human), UniProt O60674). Kind of data set: JAK2 IC50. Format: biochemical.
Another data set relates to MV4-11 AML cells. Conditions: background, literature; read-out: IC50, proliferation of MV4-11 AML cells; cited from earlier work.
Another data set relates to c-Myc. Conditions: background, literature; cited from earlier work.
The test system of data set [2] is primary human hematopoietic progenitor cells. Kind of data set: CFU-G/M colony formation of primary patient cells. Format: cell-based. The note with it: colonies after 2 weeks.
Method: (§1) Colony formation was determined after 2 weeks and is indicated relative to no drug (DMSO).
The test system of data set [3] is UKE1 cells. Kind of data set: Drug persistence of UKE1 cells under escalating drug concentration. The format is cell-based. As for the experimental part: UKE1 cells were incubated with DMSO, MA9-060, fedratinib, or ruxolitinib at their respective GI20 concentrations. Cell growth was compared to DMSO. Cells were passed back to the same density after counting. Drug concentration was doubled if growth was >90% of DMSO. Fold GI20 is plotted vs time, with drug persistence represented by upward steps of the lines. The final MA9-060, ruxolitinib, and fedratinib concentrations at the end of the experiment were 0.15, 0.6 and 2.4 uM, respectively. Fedratinib-treated cells lost complete viability after about 30 days (after 3 weeks in 2.4 uM).

For data set [4], the target named is T1, BRD4. Kind of data set: BRD4 IC50. Conditions: Table 2. Format: binding.
The subject of data set [5] is BaF3-JAK2-V617F-luciferase cells. Conditions: for median survival (post-treatment start): treated for 14 days. The method, then:
Vehicle control and MA9-060 were administered orally twice daily at the indicated doses to Balb/c mice injected with BaF3-JAK2-V617F-luciferase cells. Mice were imaged for luciferase activity before (Day 0) and after 7 days of treatment (Tx) (FIG. 3A) with the mean total flux from target cells shown in (FIG. 3B).

The test system of another data set is MM1.S cells. The experiment in a line: Antiproliferative activity, MM1.S cells. Format: cell-based. Conditions: Homo sapiens; for GI50: Table 2, read-out: GI50 (MM1S); for IC50: Table 1 comments. Summed up:
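MM.1S and MV4-11 AML cells were treated with compounds; c-Myc levels served as biomarker after 6-12 hr treatment, and antiproliferative activity was measured after 48-72 hr treatment.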

Data set [6] concerns PBMCs from a JAK2-V617F+ myelofibrosis patient. The experiment in a line: Epo-independent erythroid colony (EEC) formation of primary MPN patient cells. Conditions: colonies after 2 weeks, relative to DMSO, compared with fedratinib and ruxolitinib.
Method: as §1
In data set [7] the test system is UKE1 cells. The experiment in a line: Growth inhibition GI50, UKE1 cells. The format is cell-based.
Another data set deals with BaF3-JAK2-VF cells. Kind of data set: Growth inhibition GI50, BaF3-JAK2-VF cells. Format: cell-based. The note with it: Table 1 comments.
The nature of data set [8]: Mouse microsome stability. The note with it: Table 1 comments; meaning of % not stated. Format: in vitro ADME.
The next data set has as its system SET2 cells. Kind of data set: Growth inhibition GI50, SET2 cells. The format is cell-based. Conditions: Homo sapiens, SET-2; Table 1 comments; unit printed only for the neighbouring values in the cell.
A short description of data set [9]: Human microsome stability. The format is in vitro ADME. The note with it: Table 1 comments; meaning of % not stated.
Where [10] appears, read: UKE1, Table 2, read-out: GI50 (UKE1).

JAK2, sequence (O60674 whole entry): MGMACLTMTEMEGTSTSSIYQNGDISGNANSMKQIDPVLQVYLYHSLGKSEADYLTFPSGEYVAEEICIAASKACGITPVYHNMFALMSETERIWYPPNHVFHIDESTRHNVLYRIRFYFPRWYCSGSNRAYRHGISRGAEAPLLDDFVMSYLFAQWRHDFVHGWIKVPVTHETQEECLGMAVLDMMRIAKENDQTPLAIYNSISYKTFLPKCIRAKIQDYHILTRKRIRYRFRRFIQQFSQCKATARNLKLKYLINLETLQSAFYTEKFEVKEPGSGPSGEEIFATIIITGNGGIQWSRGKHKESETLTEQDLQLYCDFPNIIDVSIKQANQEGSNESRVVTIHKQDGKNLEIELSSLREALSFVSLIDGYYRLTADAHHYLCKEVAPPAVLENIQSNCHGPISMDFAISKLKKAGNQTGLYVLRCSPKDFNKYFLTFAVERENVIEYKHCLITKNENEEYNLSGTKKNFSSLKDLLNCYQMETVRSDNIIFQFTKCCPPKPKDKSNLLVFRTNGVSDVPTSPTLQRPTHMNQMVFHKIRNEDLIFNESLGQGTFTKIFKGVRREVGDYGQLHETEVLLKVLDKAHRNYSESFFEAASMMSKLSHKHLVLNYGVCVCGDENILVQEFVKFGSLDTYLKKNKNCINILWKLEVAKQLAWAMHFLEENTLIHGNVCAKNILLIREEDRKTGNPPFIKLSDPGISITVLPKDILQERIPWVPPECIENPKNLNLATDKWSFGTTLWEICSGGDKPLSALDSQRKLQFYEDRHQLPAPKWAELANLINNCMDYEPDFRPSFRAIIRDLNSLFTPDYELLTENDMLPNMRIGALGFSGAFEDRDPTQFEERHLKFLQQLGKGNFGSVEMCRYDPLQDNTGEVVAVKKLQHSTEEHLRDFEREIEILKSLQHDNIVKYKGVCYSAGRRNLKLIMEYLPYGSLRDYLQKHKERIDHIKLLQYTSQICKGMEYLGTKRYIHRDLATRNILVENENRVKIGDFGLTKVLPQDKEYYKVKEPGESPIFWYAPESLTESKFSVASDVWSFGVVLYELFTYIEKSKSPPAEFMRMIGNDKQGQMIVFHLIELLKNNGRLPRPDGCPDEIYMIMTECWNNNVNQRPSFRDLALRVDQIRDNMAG

Consider `Cc1cnc(Nc2ccc(N3CCNCC3)c(F)c2)nc1Nc1ccc(Cl)c(NS(=O)(=O)C(C)(C)C)c1`, for which the IC50 at BRD4-1 is 1 nM; against JAK2 (Table 1 comments, n = 2), 2.73 nM. At BRD4 [1], the “DSF ΔTm” value was found to be 13 ± 0.05 °C.

On to `Cc1cnc(Nc2ccc(OCCN3CCCC3)cc2)nc1Nc1cccc(S(=O)(=O)NC(C)(C)C)c1` [TG101348], for which the IC50 in the data set with MV4-11 AML cells was 79 nM. In addition, in the data set on c-Myc, the “downregulation of c-Myc in MM.1S cells” value is listed as “strong downregulation”.

Take `Cc1cnc(Nc2ccc(N3CCN(CCCN)CC3)c(F)c2)nc1Nc1cccc(NS(=O)(=O)C(C)(C)C)c1`: on BRD4-1, the IC50 was 15.7 nM. At BRD4 [1], the “DSF ΔTm” value worked out at 9.4 ± 0.09 °C.

Consider `Cc1cnc(Nc2ccc(N3CCN(C)CC3)cc2)nc1Nc1cccc(S(=O)(=O)NC(C)(C)C)c1` [TG101209], for which the “downregulation of c-Myc in MM.1S cells” value with c-Myc is “strong downregulation”.

For the molecule `Cc1cnc(Nc2ccc(N3CCN(CCCN)CC3)c(F)c2)nc1Nc1ccc(Cl)c(NS(=O)(=O)C(C)(C)C)c1`, the IC50 on BRD4-1 is 4.6 nM. The “DSF ΔTm” value on BRD4 [1] turned out to be 11 ± 0.02 °C.

As for `Cc1cnc(Nc2ccc(C3CCN(C)CC3)c(F)c2)nc1Nc1ccc(Cl)c(NS(=O)(=O)C(C)(C)C)c1` [MA9-060, N-(2-Chloro-5-((2-((3-fluoro-4-(1-methylpiperidin-4-yl)phenyl)amino)-5-methylpyrimidin-4-yl)amino)phenyl)-2-methylpropane-2-sulfonamide], at BRD4 [1], the “BRD4 DSF (ΔTm)” value was 14.5 °C. For the same molecule, the “effect on CFU-G/M colony growth” value in data set [2] is reported as “not affected; also recorded: Little effect”. Further, the “development of drug persistence” value in the data set with UKE1 cells [3] (UKE1 cells started at GI20, concentration doubled if growth >90% of DMSO) is “do not develop drug persistence; also recorded: could not escape a low concentration”. In addition, the “final drug concentration at the end of the experiment” value with UKE1 cells [3] (UKE1 cells, drug persistence experiment) was determined as 0.15 µM. Moreover, the IC50 against BRD4 [4] is 26 nM; at JAK2 (Table 2), 3.3 nM. The figures for the “median survival (post-treatment start)” value in data set [5] (10 mg/kg orally twice daily), in [5] (25 mg/kg orally twice daily) and in data set [5] (50 mg/kg orally twice daily) were 19 days, 26 days and 31 days, respectively. Besides, in [5] (25 mg/kg twice daily orally), the toxicity entry was “No toxicity was detected”. Besides, in data set [5] (oral, twice daily, luciferase imaging), the “inhibition of BaF3-JAK2-V617F-luciferase cells in Balb/c mice” value is listed as “dose-dependent inhibition”. Also, the GI50 (usually the concentration that inhibits growth by half) was 43 nM in the data set with MM1.S cells and 150 nM in the data set with UKE1 cells [7] (setting [10]). For the same molecule, the “inhibition of Epo-independent (neoplastic) erythroid colony (EEC) formation” value in data set [6] was “more effective than Fedratinib or Ruxolitinib; also recorded: superior to fedratinib and ruxolitinib”.

On to `CC[C@@H]1C(=O)N(C)c2cnc(Nc3ccc(C(=O)NC4CCN(C)CC4)cc3OC)nc2N1C1CCCC1` [BI2536], for which the “downregulation of c-Myc in MM.1S cells” value in the data set with c-Myc is recorded as “strong downregulation”.

For the molecule `Cc1cnc(Nc2ccc(C3CCN(C)CC3)cc2)nc1Nc1ccc(Cl)c(NS(=O)(=O)C(C)(C)C)c1` [drawing 11], the “DSF ΔTm” value at BRD4 [1] was 12.3 °C. Moreover, the 50% growth inhibitory concentration (GI50) in the data set on BaF3-JAK2-VF cells was 99 nM; in the data set on UKE1 cells [7] (Table 1 comments, read-out: GI50 (UKE1 cells)), 340 nM; in the data set on UKE1 cells [7] (UKE1, Table 1 comments, read-out: GI50 (UKE1 cells)), 280 nM; with SET2 cells it was 240 nM. The molecule further gave a Mouse microsome in [8] of 81%. This molecule returned an IC50 in the data set on MM1.S cells of 110 nM.

Molecule `Cc1cnc(Nc2ccc(C3CCN(C)CC3)c(F)c2)nc1Nc1ccc(Cl)c(NS(=O)(=O)C(C)(C)C)c1` [drawing 9] returned a Human microsome in [9] of 42.6%. Further, the “DSF ΔTm” value at BRD4 [1] was 14.2 °C. Also, the GI50 in the data set with BaF3-JAK2-VF cells amounted to 28 nM; in the data set on SET2 cells, 54 nM. The Mouse microsome in [8] was found to be 100%. Moreover, the IC50 with MM1.S cells is 43 nM.

With `Cc1cnc(Nc2ccc(C3CCN(C)CC3)cc2)nc1Nc1ccc(Cl)c(NS(=O)(=O)C(C)(C)C)c1` [MA9-050, N-(2-Chloro-5-((5-methyl-2-((4-(1-methylpiperidin-4-yl)phenyl)amino)pyrimidin-4-yl)amino)phenyl)-2-methylpropane-2-sulfonamide], at BRD4 [1], the “BRD4 DSF (ΔTm)” value worked out at 12.3 °C. For the same molecule, the IC50 is 143 nM against BRD4 [4] and 8.2 nM at JAK2 (Table 2). Also, the GI50 in the data set with MM1.S cells turned out to be 110 nM; in the data set with UKE1 cells [7] (setting [10]), 310 nM.
